Laboratory results published in patent publication US9266880B2, “Substituted azaindazole compounds” (Bristol-Myers Squibb Company, priority 2010, dated 2016).

Target: Human CYP17 (Homo sapiens (Human), UniProt P05093)
Test: CYP17 Total SPA Assay
Type: biochemical
Conditions: microsomes from HEK2 cells stably transfected with CYP17; 3H-Pregnenolone 1 uM, NADPH 2 mM; 45 minutes at room temperature
Protocol: The assays were performed in U-bottom 384-well optiplates. The final assay volume was 15 μl prepared from 7.5 μl additions of microsomes (prepared as a high-speed pellet from homogenized HEK2 cells stably transfected with CYP17), substrates (3H— Pregnenolone and NADPH) and test compounds in assay buffer (50 mM Potassium phosphate pH 7.2, 10% glycerol). The reaction was initiated by the combination of the microsomes and substrates in wells containing compound. The reaction was incubated at room temperature for 45 minutes and terminated by adding 7.5 μl of 0.2N HCl to each well. Following an incubation period of 10 minutes, anti-DHEA-coated SPA beads were added to the terminated reaction. The plate was sealed and incubated overnight with shaking at 4° C. The beads were allowed to settle in the plate for 1 hour and the plate read on a TOPCOUNT® (Perkin-Elmer) plate reader.
Inhibition data were calculated by comparison to no enzyme control reactions for 100% inhibition and vehicle-only reactions for 0% inhibition. The final concentration of reagents in the assays are NADPH, 2 mM; 3H-Pregnenolone, 1 uM; microsomes, 1.25 ug/ml; Anti-DHEA-SPA beads (0.125 mg/well) in 0.5% Triton X-100 and DMSO, 0.05%. Dose response curves were generated to determine the concentration required inhibiting 50% of enzyme activity (IC50). Compounds were dissolved at 10 mM in dimethylsulfoxide (DMSO) and evaluated at eleven concentrations, each in duplicate. IC50 values were derived by non-linear regression analysis.

Chain of Human CYP17 (P05093 whole entry): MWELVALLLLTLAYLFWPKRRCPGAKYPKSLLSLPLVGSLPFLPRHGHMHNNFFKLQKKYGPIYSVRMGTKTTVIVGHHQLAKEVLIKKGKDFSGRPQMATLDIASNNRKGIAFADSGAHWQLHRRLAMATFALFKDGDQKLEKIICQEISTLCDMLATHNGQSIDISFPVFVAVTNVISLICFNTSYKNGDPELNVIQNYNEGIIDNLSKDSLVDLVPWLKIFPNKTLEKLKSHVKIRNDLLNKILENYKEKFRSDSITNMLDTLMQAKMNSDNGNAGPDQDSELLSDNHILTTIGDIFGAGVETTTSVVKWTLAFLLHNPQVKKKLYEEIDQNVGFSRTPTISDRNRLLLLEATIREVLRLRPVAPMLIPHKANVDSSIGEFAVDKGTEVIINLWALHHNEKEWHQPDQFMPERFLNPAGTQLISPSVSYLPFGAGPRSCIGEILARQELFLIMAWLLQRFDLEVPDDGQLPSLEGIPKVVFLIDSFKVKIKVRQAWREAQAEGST

IC50 [nM]	SMILES
128	Fc1ccc(-n2ncc3c(-c4cncc5ccccc45)ccnc32)cc1 [Example 1, 4-(1-(4-Fluorophenyl)-1H-pyrazolo[3,4-b]pyridin-4-yl)isoquinoline]
41	Fc1ccc(-n2ncc3c(-c4cncc5ncccc45)ccnc32)cc1 [Example 3, 5-(1-(4-Fluorophenyl)-1H-pyrazolo[3,4-b]pyridin-4-yl)-1,7-naphthyridine]
23	NS(=O)(=O)c1cccc(-n2ncc3c(-c4cncc5ccccc45)ccnc32)c1 [Example 7, 3-(4-(Isoquinolin-4-yl)-1H-pyrazolo[3,4-b]pyridin-1-yl)benzenesulfonamide]
206	NS(=O)(=O)c1cccc(-n2ncc3c(-c4cncc5ncccc45)ccnc32)c1 [Example 5, 3-(4-(1,7-Naphthyridin-5-yl)-1H-pyrazolo[3,4-b]pyridin-1-yl)benzenesulfonamide]

Second part, the molecule before the results:

SMILES	IC50 [nM]
Fc1ccc(-n2ncc3c(-n4ccnc4)ccnc32)cc1 [Example 2, 1-(4-Fluorophenyl)-4-(1H-imidazol-1-yl)-1H-pyrazolo[3,4-b]pyridine]	640
Fc1ccc(-n2ncc3c(-c4cncn5cccc45)ccnc32)c(F)c1 [Example 8, 1-(2,4-Difluorophenyl)-4-(pyrrolo[1,2-c]pyrimidin-4-yl)-1H-pyrazolo[3,4-b]pyridine]	76
Cn1cncc1-c1ccnc2c1cnn2-c1ccc(F)cc1 [Example 4, 1-(4-Fluorophenyl)-4-(1-methyl-1H-imidazol-5-yl)-1H-pyrazolo[3,4-b]pyridine]	50
Cn1cncc1-c1ccnc2c1cnn2-c1cccc(S(N)(=O)=O)c1 [Example 6, 3-(4-(1-Methyl-1H-imidazol-5-yl)-1H-pyrazolo[3,4-b]pyridin-1-yl)benzenesulfonamide]	271
